In EP1184367A1, “AMIDE DERIVATIVES” (Sumitomo Pharmaceuticals Company, Limited, priority 1999, dated 2000):
Read-outs that look alike come from different tables or passages of the source.

System: constant white light-induced retinal damage
Excerpt: Male Wistar rats (7 weeks old, Charles River Japan Inc.) were purchased and maintained in cyclic light / dark environment (8:00-20:00 / light term) for one week, and then placed within the apparatus for constant white light exposure for two days. The constant white light exposure apparatus is a covered breeding box of 1020 mm in length, 425 mm in width, 520 mm in height, which is made of acryl boards and of which all inner side are covered with mirrors. Light was continuously irradiated all the day long (24 hours) using white fluorescent lamp attached to the ceiling of the apparatus. The average illuminance in the apparatus was 174.2 foot candle. After two days in the apparatus, the rats were moved to a darkroom and dark adapted for 1-4 hours. The rats were anesthetized with pentobarbital and placed in a stereotaxic frame. After topical mydriatica was given and electrodes were put on corneal surface, center of the forehead and the lower part of the lobe, the response in active potential of retina to the flash stimulation with fixed energy was determined from the recorded ERG (electroretinogram). The damage of retina was evaluated by the decrease in the amplitude of ERG a-wave which originated from retinal outer nuclear cells (photoreceptors). […]

Row | Structure (SMILES) | % recovery (Mean±S.E.M.) (rat, in vivo, po, 100 mg/kg) [%] | % recovery (Mean±S.E.M.) (rats, 100 mg/kg orally administered in 0.5 % methylcellulose, just before constant light exposure and at the same time on the next day, two days of exposure, ERG a-wave amplitude relative to normal control and MC groups, five rats in a group) [%]
1 | CC(C)(COC(=O)CCC(=O)O)NC(=O)c1ccc(F)cc1F [Example 3, N-(2-(3-Carboxypropionyloxy)-1,1-dimethylethyl)-2,4-difluorobenzamide] | 14.0 ± 3.1 | 
2 | CC(C)(COC(=O)CN)NC(=O)c1ccc(F)cc1F.O=S(=O)(O)c1ccccc1 [Example 4, N-(2-Glycyloxy-1,1-dimethylethyl)-2,4-difluorobenzamide benzenesulfonate] |  | 19.5 ± 3.3
